PMC4755858 (Biochemistry, 2016)
Read-outs that look alike come from different tables or passages of the source.

Legend:
[1] = biological target: phosphodiesterase protein GdpP (Bacillus subtilis, UniProt P37484); assay: competition phosphodiesterase assay; conditions: for Fold Change: Ki relative to Km of c-di-AMP (130 µM); for effect on c-di-AMP degradation by GdpP (in words): excess unlabeled competitor analog
[2] = system: wild-type ydaO riboswitch; assay: gel-shift; format: binding, Bacillus subtilis; conditions: for ΔΔGbind: ΔGbind(analog) − ΔGbind(c-di-AMP); for binding to ydaO riboswitch (in words): competition gel-shift, highest analog concentration tested (≥200 µM); for binding energy weaker than the corresponding deoxy variant: 2’-fluoro versus 2’-deoxy analog (c-dA-AMP or c-di-dAMP)
[3] = biological target: T1, phosphodiesterase protein GdpP (GdpP84–659) (Bacillus subtilis, UniProt P37484); assay: HPLC phosphodiesterase assay, degradation rates of c-di-AMP and analogs; format: biochemical; conditions: for Fold Change: hydrolysis rate relative to c-di-AMP (fold slower); for degradation by GdpP (in words): HPLC assay, incubation up to 24 h
[4] = biological target: ydaO riboswitch ΔSite1 mutant; assay: gel-shift binding to ydaO binding-site mutant ΔSite1; conditions: for Kd: read-out: Ligand Kd; for Kd / fold loss in affinity compared to native ligand: ΔSite1 construct; for fold loss in affinity compared to native ligand: versus c-di-AMP
[5] = biological target: ydaO riboswitch ΔSite2 mutant; assay: gel-shift binding to ydaO binding-site mutant ΔSite2; conditions: for Kd: read-out: Ligand Kd; for Kd / fold loss in affinity compared to native ligand: ΔSite2 construct; for fold loss in affinity compared to native ligand: versus c-di-AMP
[6] = biological target: T1, phosphodiesterase protein GdpP (GdpP84–659); assay: steady-state kinetics; format: biochemical
[7] = system: wild-type ydaO riboswitch; conditions: cited from earlier work
[8] = system: ydaO riboswitch, both binding sites mutated; assay: gel-shift binding to ydaO construct with both binding sites mutated; conditions: both binding sites mutated in a single construct
[9] = system: ydaO riboswitch Site 2U construct; assay: gel-shift binding to ydaO G-U mutant Site 2U
[10] = system: ydaO riboswitch ΔSite1 mutant; conditions: cited from earlier work
[11] = biological target: T1, phosphodiesterase protein GdpP (GdpP84–659); conditions: cited from earlier work
[12] = system: ydaO riboswitch Site 1U construct; assay: gel-shift binding to ydaO G-U mutant Site 1U
[13] = loss in affinity for wild-type ydaO relative to c-di-AMP

Chain of phosphodiesterase protein GdpP (P37484 84-659): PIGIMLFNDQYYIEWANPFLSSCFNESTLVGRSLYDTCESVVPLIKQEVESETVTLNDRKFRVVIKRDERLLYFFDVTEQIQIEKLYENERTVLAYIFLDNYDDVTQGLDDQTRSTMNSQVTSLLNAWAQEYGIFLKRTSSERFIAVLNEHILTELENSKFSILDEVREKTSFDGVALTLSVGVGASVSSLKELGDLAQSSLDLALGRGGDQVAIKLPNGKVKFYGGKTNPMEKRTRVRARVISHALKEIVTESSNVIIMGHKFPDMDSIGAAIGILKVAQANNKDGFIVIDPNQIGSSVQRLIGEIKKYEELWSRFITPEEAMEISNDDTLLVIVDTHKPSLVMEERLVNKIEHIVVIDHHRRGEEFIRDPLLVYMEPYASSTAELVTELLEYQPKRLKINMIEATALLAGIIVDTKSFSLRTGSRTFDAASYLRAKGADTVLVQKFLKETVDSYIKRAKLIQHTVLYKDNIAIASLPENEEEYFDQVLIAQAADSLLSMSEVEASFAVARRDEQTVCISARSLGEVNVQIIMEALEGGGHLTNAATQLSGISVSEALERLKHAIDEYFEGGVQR
T1 sequence (P37484 84-659): as above

Nc1ncnc2c1ncn2[C@@H]1O[C@@H]2COP(=O)(O)O[C@H]3C[C@H](n4cnc5c(N)ncnc54)O[C@@H]3COP(=O)(O)O[C@H]2[C@H]1F [c-dA-2’F-A]
Ki [1]: 9.4 ± 0.8 µM
Fold Change [1]: 0.07
effect on c-di-AMP degradation by GdpP (in words) [1]: reduced degradation velocity
Fold Loss [2, 13]: 530
improvement in binding energy by replacing a 2’-fluoro substituent with a 2’-deoxy group ([2]; wild-type ydaO): ~1.4 kcal/mol
ΔΔGbind ([2]; wild-type ydaO): 3.7 kcal/mol
Fold Change [3]: ≥ 4100

O=c1[nH]cnc2c1ncn2[C@@H]1O[C@@H]2COP(=O)(O)O[C@H]3[C@@H](O)[C@H](n4cnc5c(=O)[nH]cnc54)O[C@@H]3COP(=O)(O)O[C@H]2[C@H]1O [c-di-IMP]
Fold Loss [2, 13]: 3600
ΔΔGbind ([2]; wild-type ydaO): 4.9 kcal/mol
Fold Change [3]: ≥ 4100

Nc1ncnc2c1ncn2[C@@H]1O[C@@H]2CO[P@@](=O)(S)O[C@H]3[C@@H](O)[C@H](n4cnc5c(N)ncnc54)O[C@@H]3CO[P@@](=O)(S)O[C@H]2[C@H]1O [c-(RpRp)-di-Aps]
Ki [1]: 260 ± 2.7 µM
Fold Change [1]: 2.0
Fold Change ([1]; listed as RpRp): ≤ 2
Fold Loss [2, 13]: 1.8
ΔΔGbind ([2]; wild-type ydaO): 0.4 kcal/mol
Kd [4]: 0.0113 ± 0.0008 µM
fold loss in affinity compared to native ligand [4]: 2 fold
Kd [5]: 0.0062 ± 0.0005 µM
fold loss in affinity compared to native ligand [5]: 2 fold
degradation by GdpP (in words) [3]: No detectable degradation
Fold Change [3]: ≥ 4100

COC1C2OP(=O)(O)OCC3OC(n4cnc5c(N)ncnc54)C(O)C3OP(=O)(O)OCC2OC1n1cnc2c(N)ncnc21 (centres unmarked) [c-2’OMe-A-AMP]
Fold Loss [2]: 620
Fold Change [3]: 30

Nc1nc2c(ncn2[C@@H]2O[C@@H]3COP(=O)(O)O[C@H]4[C@@H](O)[C@H](n5cnc6c(=O)[nH]c(N)nc65)O[C@@H]4COP(=O)(O)O[C@H]3[C@H]2O)c(=O)[nH]1 [c-di-GMP, (3’-5’)-cyclic diguanosine monophosphate, reference compound]
binding to ydaO riboswitch (in words) [2]: no detectable binding
ΔΔGbind ([2]; wild-type ydaO): > 10 kcal/mol

Nc1ncnc2c1ncn2[C@@H]1O[C@@H]2COP(=O)(O)O[C@H]3[C@@H](O)[C@H](n4cnc5c(N)ncnc54)O[C@@H]3COP(=O)(O)O[C@H]2[C@H]1O [c-di-AMP, (3’-5’)-cyclic diadenosine monophosphate]
Km ([6]; c-di-AMP as substrate of GdpP): 130 µM
rate of c-di-AMP hydrolysis (kcat) ([6]; steady-state, substrate 3 to 800 µM, 200 nM GdpP): 0.26 ± 0.02 s⁻¹
Vmax, maximum reaction velocity ([6]; used in Ki equation): 15.6 min⁻¹
selectivity of ydaO binding over c-di-GMP and c-AMP-GMP [7]: more than 100,000 fold
Hill coefficient ([2]; c-di-AMP binding curve, wild-type ydaO, cooperative binding model): 1.6
affinity for the riboswitch (in words) [8]: disrupted c-di-AMP affinity
Kd [4]: 0.0055 ± 0.0003 µM
Hill coefficient ([4]; ΔSite1 mutant): 1
fold lower affinity than the ΔSite mutants ([9]; Site 2U (G-U wobble) construct): less than 10 fold
Hill coefficient ([9]; Site 2U construct): 1
Kd [5]: 0.0033 ± 0.0005 µM
Hill coefficient ([5]; ΔSite2 mutant): 1
fold loss in affinity compared with wild-type ydaO ([5]; ΔSite2 mutant versus wild-type): 6 fold
binding to Site 2 when Site 1 was mutated (in words) [10]: No measurable binding
rate of c-di-AMP hydrolysis, previously published value [11]: 0.55 ± 0.02 s⁻¹
fold lower affinity than the ΔSite mutants ([12]; Site 1U (G-U wobble) construct): less than 10 fold
Hill coefficient ([12]; Site 1U construct): 1
initial rate of hydrolysis ([3]; 100 µM substrate, 1 µM GdpP): 4.1 min⁻¹
degradation of c-di-AMP after 60 min (in words) ([3]; HPLC traces, experimental conditions used): completely degraded

Nc1ncnc2c1ncn2[C@@H]1O[C@@H]2CO[P@@](=O)(S)O[C@H]3[C@@H](O)[C@H](n4cnc5c(N)ncnc54)O[C@@H]3CO[P@](=O)(S)O[C@H]2[C@H]1O [c-(RpSp)-di-Aps]
Ki [1]: 210 ± 17 µM
Fold Change [1]: 1.6
Fold Change ([1]; listed as RpSp): ≤ 2
Fold Loss [2, 13]: 2.9
ΔΔGbind ([2]; wild-type ydaO): 0.6 kcal/mol
Kd [4]: 0.0094 ± 0.0011 µM
fold loss in affinity compared to native ligand [4]: 2 fold
Kd [5]: 0.0054 ± 0.0004 µM
fold loss in affinity compared to native ligand [5]: 2 fold
degradation by GdpP (in words) [3]: No detectable degradation
Fold Change [3]: ≥ 4100

CO[C@@H]1[C@@H]2OP(=O)(O)OC[C@H]3O[C@@H](n4cnc5c(N)ncnc54)[C@H](OC)[C@@H]3OP(=O)(O)OC[C@H]2O[C@H]1n1cnc2c(N)ncnc21 [c-di-2’OMe-AMP]
Ki [1]: 15 ± 2.5 µM
Fold Change [1]: 0.12
effect on c-di-AMP degradation by GdpP (in words) [1]: reduced degradation velocity
binding to ydaO riboswitch (in words) [2]: no detectable affinity
Fold Loss [2, 13]: > 2.9 × 10^6
ΔΔGbind ([2]; wild-type ydaO): > 8.8 kcal/mol
Fold Change [3]: ≥ 4100

Nc1ncnc2c1ncn2[C@H]1C[C@@H]2OP(=O)(O)OC[C@H]3O[C@@H](n4cnc5c(N)ncnc54)C[C@@H]3OP(=O)(O)OC[C@H]2O1 [c-di-dAMP]
Ki [1]: 200 ± 18 µM
Fold Change [1]: 1.5
effect on c-di-AMP degradation by GdpP (in words) [1]: reduced degradation velocity
loss in ligand affinity ([7]; previously reported): up to 100 fold
Fold Loss [2, 13]: 290
ΔΔGbind ([2]; wild-type ydaO): 3.4 kcal/mol
Fold Change [3]: ≥ 4100

Nc1ncnc2c1ncn2[C@@H]1O[C@@H]2COP(=O)(O)O[C@H]3[C@@H](O)[C@H](n4cnc5c(=O)[nH]cnc54)O[C@@H]3COP(=O)(O)O[C@H]2[C@H]1O [c-AMP-IMP]
ΔΔGbind ([2]; wild-type ydaO): 4.3 kcal/mol
Fold Change [3]: 3.3

Nc1ncnc2c1ncn2[C@@H]1O[C@@H]2COP(=O)(O)O[C@H]3[C@@H](F)[C@H](n4cnc5c(N)ncnc54)O[C@@H]3COP(=O)(O)O[C@H]2[C@H]1O [c-2’F-A-AMP]
Fold Loss [2]: 47
binding energy weaker than the corresponding deoxy variant ([2]; wild-type ydaO): ~0.5 kcal/mol
ΔΔGbind ([2]; wild-type ydaO): 2.3 kcal/mol
Fold Change [3]: 24

Nc1ncnc2c1ncn2C1CC2OP(=O)(O)OCC3OC(n4cnc5c(N)ncnc54)C(O)C3OP(=O)(O)OCC2O1 (centres unmarked) [c-dA-AMP]
effect on c-di-AMP degradation by GdpP (in words) [1]: measurable deficiency in linearization
Fold Loss [2]: 20
ΔΔGbind ([2]; wild-type ydaO): 1.8 kcal/mol
Fold Change [3]: 1.2

Nc1ncnc2c1ncn2[C@@H]1O[C@@H]2COP(=O)(O)O[C@H]3[C@@H](F)[C@H](n4cnc5c(N)ncnc54)O[C@@H]3COP(=O)(O)O[C@H]2[C@H]1F [c-di-2’F-AMP]
Ki [1]: 26 ± 3.6 µM
Fold Change [1]: 0.2
effect on c-di-AMP degradation by GdpP (in words) [1]: reduced degradation velocity
binding energy weaker than the corresponding deoxy variant ([2]; wild-type ydaO): more than 1.7 kcal/mol
Fold Loss [2, 13]: 5100
ΔΔGbind ([2]; wild-type ydaO): 5.1 kcal/mol
Fold Change [3]: ≥ 4100
